Assay results: ChEMBL document CHEMBL1136143, “Synthesis and activity of novel benzoxazole derivatives of mannopeptimycin glycopeptide antibiotics” (2003)
In brackets after ≈: the same amount, converted by molar mass.

Assays:
[1] = tested on: Enterococcus sp.; test: In vitro minimum inhibitory concentration against Enterococcus species (11 strains, including VRE); format: functional
[2] = tested on: Enterococcus faecalis; test: In vitro minimum inhibitory concentration against vancomycin-susceptible Enterococcus faecalis (GC 4555); format: functional
[3] = tested on: Enterococcus faecalis; test: In vitro minimum inhibitory concentration against vancomycin-resistant Enterococcus faecalis (GC 2242); format: functional
[4] = tested on: Enterococcus faecalis; test: In vitro minimum inhibitory concentration against vancomycin-resistant Enterococcus faecalis (GC 3059); format: functional
[5] = tested on: Enterococcus faecalis; test: In vitro minimum inhibitory concentration against vancomycin-resistant Enterococcus faecalis (GC 6189); format: functional
[6] = tested on: Enterococcus faecalis; test: In vitro minimum inhibitory concentration against vancomycin-susceptible Enterococcus faecalis (GC 2691); format: functional
[7] = tested on: Enterococcus faecalis; test: In vitro minimum inhibitory concentration against vancomycin-susceptible Enterococcus faecalis (GC 4552); format: functional
[8] = tested on: Enterococcus faecalis; test: In vitro minimum inhibitory concentration against vancomycin-susceptible Enterococcus faecalis (GC 4553); format: functional
[9] = tested on: Micrococcus luteus; test: In vitro minimum inhibitory concentration against Micrococcus lutea (GC 4562); format: functional
[10] = tested on: Staphylococcus aureus; test: In vitro minimum inhibitory concentration against Staphylococcus aureus (10strains, including MRSA); format: functional
[11] = tested on: Staphylococcus aureus; test: In vitro minimum inhibitory concentration against Methicillin-resistant Staphylococcus aureus (GC 1131); format: functional
[12] = tested on: Staphylococcus aureus; test: In vitro minimum inhibitory concentration against Methicillin-resistant Staphylococcus aureus (GC 4542); format: functional
[13] = tested on: Staphylococcus aureus; test: In vitro minimum inhibitory concentration against Methicillin-resistant Staphylococcus aureus(GC 4541); format: functional
[14] = tested on: Staphylococcus aureus; test: In vitro minimum inhibitory concentration against Methicillin-susceptible Staphylococcus aureus (GC 2216); format: functional
[15] = tested on: Staphylococcus aureus; test: In vitro minimum inhibitory concentration against Methicillin-susceptible Staphylococcus aureus (GC 4543); format: functional
[16] = tested on: Staphylococcus aureus; test: In vitro minimum inhibitory concentration against Methicillin-susceptible Staphylococcus aureus(GC 4544); format: functional
[17] = tested on: Staphylococcus aureus; test: In vitro minimum inhibitory concentration against glycopeptide tntermediate Staphylococcus aureus (GC 3051); format: functional
[18] = tested on: Staphylococcus aureus; test: In vitro minimum inhibitory concentration against glycopeptide tntermediate Staphylococcus aureus (GC 3066); format: functional
[19] = tested on: Staphylococcus haemolyticus; test: In vitro minimum inhibitory concentration against methicillin-resistant Coagulase-negative Staphylococci (MRCNS) (GC 4547)); format: functional
[20] = tested on: Streptococcus pneumoniae; test: In vitro minimum inhibitory concentration against Penicillin resistant Streptococcus pneumoniae (GC 1894); format: functional
[21] = tested on: Streptococcus pneumoniae; test: In vitro minimum inhibitory concentration against Penicillin susceptible Streptococcus pneumoniae (GC 6242); format: functional
[22] = tested on: Streptococcus pyogenes; test: In vitro minimum inhibitory concentration against Streptococcus pyogenes (GC 4563); format: functional
[23] = tested on: Staphylococcus haemolyticus; test: In vitro minimum inhibitory concentration against methicillin-resistant Coagulase-negative Staphylococci (MRCNS) hemolyticu (GC 4546)); format: functional
[24] = tested on: Staphylococcus haemolyticus; test: In vitro minimum inhibitory concentration against methicillin-susceptible Coagulase-negative Staphylococci (MSCNS) (GC 4549)); format: functional
[25] = tested on: Staphylococcus haemolyticus; test: In vitro minimum inhibitory concentration against methicillin-susceptible Coagulase-negative Staphylococci (MSCNS) (GC 4551); format: functional
[26] = tested on: Staphylococcus haemolyticus; test: In vitro minimum inhibitory concentration against methicillin-susceptible Coagulase-negative Staphylococci (MSCNS) (GC 6257); format: functional
[27] = tested on: Streptococcus; test: In vitro minimum inhibitory concentration against Streptococcus Species (5 strains, including PRSP); format: functional
[28] = tested on: Bacillus cereus; test: In vitro minimum inhibitory concentration against Bacillus cereus (GC 4561) assay organism; format: functional
[29] = tested on: Staphylococcus haemolyticus; test: In vitro minimum inhibitory concentration against methicillin-resistant Coagulase-negative Staphylococci (MRCNS) (GC 4548)); format: functional
[30] = tested on: Staphylococcus aureus; test: In vitro minimum inhibitory concentration against Methicillin-susceptible Staphylococcus aureus(GC 4545); format: functional
[31] = tested on: Enterococcus faecalis; test: In vitro minimum inhibitory concentration against vancomycin-susceptible Enterococcus faecalis (GC 4554); format: functional
[32] = tested on: Streptococcus agalactiae; test: In vitro minimum inhibitory concentration against Streptococcus agalactiae (GC4564)
[33] = tested on: Enterococcus faecium; test: In vitro minimum inhibitory concentration against vancomycin-resistant Enterococcus faecium (GC 2243)
[34] = tested on: Enterococcus faecium; test: In vitro minimum inhibitory concentration against vancomycin-resistant Enterococcus faecium (GC 4558)
[35] = tested on: Enterococcus faecium; test: In vitro minimum inhibitory concentration against vancomycin-susceptible Enterococcus faecium (GC 4556)
[36] = tested on: Enterococcus faecium; test: In vitro minimum inhibitory concentration against vancomycin-susceptible Enterococcus faecium (GC 4557)
[37] = tested on: Streptococcus pneumoniae; test: In vitro minimum inhibitory concentration against Penicillin susceptible Streptococcus pneumoniae (GC 4565)
[38] = tested on: Staphylococcus aureus; test: In vitro minimum inhibitory concentration against Staphylococcus aureus; format: functional
[39] = tested on: Enterococcus faecium; test: In vitro minimum inhibitory concentration against vancomycin-resistant Enterococcus faecium (GC 2243); format: functional
[40] = tested on: Enterococcus faecium; test: In vitro minimum inhibitory concentration against vancomycin-resistant Enterococcus faecium (GC 4558); format: functional
[41] = tested on: Enterococcus faecium; test: In vitro minimum inhibitory concentration against vancomycin-susceptible Enterococcus faecium (GC 4556); format: functional
[42] = tested on: Enterococcus faecium; test: In vitro minimum inhibitory concentration against vancomycin-susceptible Enterococcus faecium (GC 4557); format: functional
[43] = tested on: Streptococcus agalactiae; test: In vitro minimum inhibitory concentration against Streptococcus agalactiae (GC4564); format: functional
[44] = tested on: Staphylococcus haemolyticus; test: In vitro minimum inhibitory concentration against methicillin-resistant Coagulase-negative Staphylococci (MRCNS) (GC 4546); format: functional
[45] = tested on: Staphylococcus haemolyticus; test: In vitro minimum inhibitory concentration against methicillin-resistant Coagulase-negative Staphylococci (MRCNS) (GC 4547); format: functional
[46] = tested on: Streptococcus pneumoniae; test: In vitro minimum inhibitory concentration against Penicillin susceptible Streptococcus pneumoniae (GC 4565); format: functional
[47] = tested on: Staphylococcus haemolyticus; test: In vitro minimum inhibitory concentration against methicillin-resistant Coagulase-negative Staphylococci (MRCNS) (GC 4548); format: functional
[48] = tested on: Staphylococcus haemolyticus; test: In vitro minimum inhibitory concentration against methicillin-susceptible Coagulase-negative Staphylococci (MSCNS) (GC 4549); format: functional

Compound: C[C@@H](c1ccccc1)[C@@H]1NC(=O)CNC(=O)[C@H](CO)NC(=O)[C@@H]([C@@H](O)[C@@H]2CN=C(N)N2[C@H]2O[C@H](CO)[C@@H](O)[C@H](O)[C@@H]2O)NC(=O)[C@H]([C@H](O)[C@@H]2CN=C(N)N2)NC(=O)[C@@H](Cc2ccc3nc(-c4ccc(N(C)C)cc4)oc3c2)NC1=O
- MIC [1]: 8 µg/mL (≈ 7.17 µM)
- MIC [2]: 32 µg/mL (≈ 28.7 µM)
- MIC [3]: 32 µg/mL (≈ 28.7 µM)
- MIC [4]: 64 µg/mL (≈ 57.4 µM)
- MIC [5]: 32 µg/mL (≈ 28.7 µM)
- MIC [6]: 32 µg/mL (≈ 28.7 µM)
- MIC [7]: 64 µg/mL (≈ 57.4 µM)
- MIC [8]: 16 µg/mL (≈ 14.3 µM)
- MIC [9]: 2 µg/mL (≈ 1.79 µM)
- MIC [10]: 8 µg/mL (≈ 7.17 µM)
- MIC [11]: 8 µg/mL (≈ 7.17 µM)
- MIC [12]: 8 µg/mL (≈ 7.17 µM)
- MIC [13]: 8 µg/mL (≈ 7.17 µM)
- MIC [14]: 8 µg/mL (≈ 7.17 µM)
- MIC [15]: 8 µg/mL (≈ 7.17 µM)
- MIC [16]: 8 µg/mL (≈ 7.17 µM)
- MIC [17]: 8 µg/mL (≈ 7.17 µM)
- MIC [18]: 8 µg/mL (≈ 7.17 µM)
- MIC [19]: 4 µg/mL (≈ 3.59 µM)
- MIC [20]: 32 µg/mL (≈ 28.7 µM)
- MIC [21]: 32 µg/mL (≈ 28.7 µM)
- MIC [22]: 16 µg/mL (≈ 14.3 µM)
- MIC [23]: 4 µg/mL (≈ 3.59 µM)
- MIC [24]: 2 µg/mL (≈ 1.79 µM)
- MIC [25]: 8 µg/mL (≈ 7.17 µM)
- MIC [26]: 4 µg/mL (≈ 3.59 µM)
- MIC [27]: 16 µg/mL (≈ 14.3 µM)
- MIC [28]: 32 µg/mL (≈ 28.7 µM)
- MIC [29]: 4 µg/mL (≈ 3.59 µM)
- MIC [30]: 8 µg/mL (≈ 7.17 µM)
- MIC [31]: 32 µg/mL (≈ 28.7 µM)
- MIC [32]: 32 µg/mL (≈ 28.7 µM)
- MIC [33]: 16 µg/mL (≈ 14.3 µM)
- MIC [34]: 16 µg/mL (≈ 14.3 µM)
- MIC [35]: 64 µg/mL (≈ 57.4 µM)
- MIC [36]: 8 µg/mL (≈ 7.17 µM)
- MIC [37]: 32 µg/mL (≈ 28.7 µM)

Compound: C[C@@H](c1ccccc1)[C@@H]1NC(=O)CNC(=O)[C@H](CO)NC(=O)[C@@H]([C@@H](O)[C@@H]2CN=C(N)N2[C@H]2O[C@H](CO)[C@@H](O)[C@H](O)[C@@H]2O)NC(=O)[C@H]([C@H](O)[C@@H]2CN=C(N)N2)NC(=O)[C@@H](Cc2ccc(O)cc2)NC1=O
- MIC [1]: 32 µg/mL (≈ 33 µM)
- MIC [38]: 64 µg/mL (≈ 65.9 µM)

Compound: CCN1CCN(C(=O)N[C@@H](C(=O)N[C@@H]2C(=O)N3[C@@H]2SC(C)(C)[C@@H]3C(=O)O)c2ccccc2)C(=O)C1=O [PIPERACILLIN]
- MIC [1]: 0.25 µg/mL (≈ 0.483 µM)
- MIC [39]: 64 µg/mL (≈ 124 µM)
- MIC [40]: > 64 µg/mL
- MIC [41]: 1 µg/mL (≈ 1.93 µM)
- MIC [42]: 0.12 µg/mL (≈ 0.232 µM)
- MIC [2]: 1 µg/mL (≈ 1.93 µM)
- MIC [3]: 2 µg/mL (≈ 3.86 µM)
- MIC [4]: 2 µg/mL (≈ 3.86 µM)
- MIC [5]: 2 µg/mL (≈ 3.86 µM)
- MIC [6]: 2 µg/mL (≈ 3.86 µM)
- MIC [7]: 2 µg/mL (≈ 3.86 µM)
- MIC [8]: > 64 µg/mL
- MIC [9]: < 0.06 µg/mL
- MIC [10]: 0.5 µg/mL (≈ 0.966 µM)
- MIC [43]: 0.12 µg/mL (≈ 0.232 µM)
- MIC [11]: > 64 µg/mL
- MIC [12]: 64 µg/mL (≈ 124 µM)
- MIC [13]: > 64 µg/mL
- MIC [14]: 4 µg/mL (≈ 7.73 µM)
- MIC [15]: 1 µg/mL (≈ 1.93 µM)
- MIC [16]: 4 µg/mL (≈ 7.73 µM)
- MIC [17]: 64 µg/mL (≈ 124 µM)
- MIC [18]: 0.5 µg/mL (≈ 0.966 µM)
- MIC [44]: > 64 µg/mL
- MIC [45]: > 64 µg/mL
- MIC [20]: 2 µg/mL (≈ 3.86 µM)
- MIC [46]: < 0.006 µg/mL
- MIC [21]: < 0.06 µg/mL
- MIC [47]: 16 µg/mL (≈ 30.9 µM)
- MIC [22]: < 0.006 µg/mL
- MIC [48]: 32 µg/mL (≈ 61.8 µM)
- MIC [25]: 4 µg/mL (≈ 7.73 µM)
- MIC [26]: 4 µg/mL (≈ 7.73 µM)
- MIC [27]: < 0.12 µg/mL
- MIC [28]: 1 µg/mL (≈ 1.93 µM)
- MIC [30]: 8 µg/mL (≈ 15.5 µM)
- MIC [31]: 1 µg/mL (≈ 1.93 µM)
